Consider six compounds from ChEMBL document CHEMBL1122099, “Antiallergics: 3-(1H-tetrazol-5-yl)-4H-pyrimido[2,1-b]benzothiazol-4-ones” (1982).

The test system of assay [1] is Rattus norvegicus. As to the kind of experiment: Tested for the antiallergic activity in rat passive cutaneous anaphylaxis (PCA) test; po. It is filed as functional.
For assay [2], the system named is Rattus norvegicus. Put plainly: Percent inhibition at a concentration of 25 mg/kg in rat passive cutaneous anaphylaxis (PCA) test. It is filed as functional.
Assay [3] relates to Rattus norvegicus. Put plainly: Percent inhibition at a concentration of 0.02 mg/kg in methacholine induced bronchospasm in rat intraduodenally. The class given is functional. The conditions noted are these: route intraduodenal.
The test system of assay [4] is Rattus norvegicus. As to the kind of experiment: Percent inhibition at a concentration of 0.1 mg/kg in methacholine induced bronchospasm in rat. It is filed as functional.
Assay [5] concerns Rattus norvegicus. As to the kind of experiment: Percent inhibition at a concentration of 1.0 mg/kg in methacholine induced bronchospasm in rat. The class given is functional.
For assay [6], the system named is Rattus norvegicus. As to the kind of experiment: Percent inhibition at a concentration of 10.0 mg/kg in methacholine induced bronchospasm in rat. It is filed as functional.
The species entered for assay [7] is Rattus norvegicus. As to the kind of experiment: Tested for the bronchodilator activity by measuring inhibition of allergen induced bronchospasm in rat intra duodenally.

The structures appear in SMILES notation.

Consider `N=c1c(-c2nnn[nH]2)cnc2sc3ccccc3n12`, for which the 50% effect level in assay [1] (ED50) was put at a dose of 8.1 mg/kg. Still for that read-out and setting: to `Cc1cc(C)c2sc3ncc(-c4nnn[nH]4)c(=O)n3c2c1` belongs 1.96 mg/kg.

With `Cc1cc2sc3ncc(-c4nnn[nH]4)c(=O)n3c2cc1C`, in assay [2], 25 mg/kg produced 35% inhibition in vivo.

With `O=c1c(-c2nnn[n-]2)cnc2sc3ccccc3n12.[K+]`, the median effective dose (ED50) was found to be 0.08 mg/kg in assay [1] and 0.38 mg/kg in assay [7]. For the same compound, in assay [3], the inhibition in vivo at 0.02 mg/kg is 13.2%. The inhibition in vivo at 0.1 mg/kg in assay [4] was determined as 37.4%. This compound also gave an inhibition in vivo at 1 mg/kg in assay [5] of 59.3%. Besides, the inhibition in vivo at 10 mg/kg in assay [6] was 61%. For the compound `COc1ccc2c(c1)sc1ncc(-c3nnn[nH]3)c(=O)n12`, it took a dose of 1.9 mg/kg to reach the 50% effect level in assay [1] (ED50). The compound `O=C([O-])c1cc(=O)c2c(OCC(O)COc3cccc4oc(C(=O)[O-])cc(=O)c34)cccc2o1.[Na+].[Na+]` [CROMOLYN SODIUM] registered a median effective dose (ED50) in assay [1] of 0.3 mg/kg.
